Assay [1] relates to HEK293. The assay is classed as cell-based. As to conditions: Homo sapiens, dose 1-3 µM, time 4.0 hrs.
The subject of assay [2] is SARS-CoV-2. The assay is classed as functional, organism-based. As to conditions: Severe acute respiratory syndrome coronavirus 2; HEK293; dose 3.0 µM, time 4.0 hrs.
Assay [3] concerns SARS-CoV-2. The assay is classed as functional, organism-based. As to conditions: Severe acute respiratory syndrome coronavirus 2; HEK293; dose 3.0 µM, time 25.0 hrs.
The subject of assay [4] is SARS-CoV-2. The assay is described as follows: microbe, parasite or virus in culture. As to conditions: Severe acute respiratory syndrome coronavirus 2, HEK293.
Assay [5] has as its system SARS-CoV-2. The assay is classed as functional, organism-based. As to conditions: Severe acute respiratory syndrome coronavirus 2; HEK293; dose 5.0 µM, time 6.0 hrs.
Assay [6] concerns SARS-CoV-2. The assay is classed as functional, organism-based. As to conditions: Severe acute respiratory syndrome coronavirus 2; HEK293; dose 5.0 µM, time 6.0 hrs. This is another data set of the same source.
In assay [7] the test system is SARS-CoV-2. The assay is classed as functional, organism-based. As to conditions: Severe acute respiratory syndrome coronavirus 2; HEK293; dose 10.0 µM, time 6.0 hrs.
Assay [8] has as its system SARS-CoV-2. The assay is classed as functional, organism-based. As to conditions: Severe acute respiratory syndrome coronavirus 2; HEK293; dose 10.0 µM, time 6.0 hrs. This is another data set of the same source.
Assay [9] deals with HEK293. The assay is classed as cell-based. As to conditions: Homo sapiens, dose 5-10 µM, time 4.0 hrs.

These results are taken from ChEMBL document CHEMBL5505981, “Design, synthesis and biological evaluation of novel 1,2,4a,5-tetrahydro-4H-benzo[b][1,4]oxazino[4,3-d][1,4]oxazine-based AAK1 inhibitors with anti-viral property against SARS-CoV-2” (Eur J Med Chem, 2024).

For orientation: IC50 means the concentration needed to halve the response being measured. Low values mean greater potency, high ones weaker potency.

Active and inactive are the calls of the source. No cut-off for these calls is given here.

In the case of `C(#Cc1c[nH]c2ncc(-c3ccc4c(c3)OCC3COCCN43)cc12)c1cccnc1` (configuration not stated), the inhibition entry with HEK293 [1] and in the assay with SARS-CoV-2 [3] was “Active” throughout. Moreover, the result with SARS-CoV-2 [2] was Active. Further, the IC50 in the assay with SARS-CoV-2 [4] was roughly 2.9 µM.

In the case of `COc1ccc(-c2cnc3[nH]cc(C#Cc4cccnc4)c3c2)cc1OC`, the inhibition result with HEK293 [1] and with SARS-CoV-2 [3] was “Active” throughout. In the assay with SARS-CoV-2 [2], the result was Active. In the assay on SARS-CoV-2 [4], this compound returned an IC50 of roughly 3.11 µM.

`CC(C)C[C@](C)(N)COc1ccc(-c2ccnc(C(F)F)c2)nc1C(F)F` [PILAVAPADIN]: the result in the assay on SARS-CoV-2 [5], with SARS-CoV-2 [2] and with SARS-CoV-2 [6] was Active. In the assay with SARS-CoV-2 [4], this compound came in with an IC50 of roughly 4.18 µM.

`CCN(CC)CCNC(=O)c1c(C)[nH]c(/C=C2\C(=O)Nc3ccc(F)cc32)c1C` [SUNITINIB] returned an IC50 in the assay with SARS-CoV-2 [4] of roughly 1.96 µM.

On to `CCN(CC)S(=O)(=O)Nc1cccc(-c2ccc3c(NC(=O)C4CC4)n[nH]c3c2)c1`, for which the outcome in the assay with SARS-CoV-2 [7], in the assay on SARS-CoV-2 [8] and in the assay with SARS-CoV-2 [2] was Active. Besides, in the assay with HEK293 [9], the inhibition result was “Active”.
